“Also recorded” adds a separate entry of the source.
Columns and labels:
[1] = system: endogenous insulin message; experiment: Secondary confirmatory assay, endogenous insulin message in T6PNE cells; assay type: cell-based, human
[2] = HBV surface antigen levels in Huh7 cells transfected with wild-type HBV construct (pWTD); assay type: cell-based, Hepatitis B virus
Excerpt: (§1) The HBsAg is seen as doublet bands with different glycosylation forms (GP33 and GP36).
(§2) BIM5078 is an HNF4α antagonist and can be useful in treatment of diseases involving HNF4α modulation. There are a number of HNF4α binding sites in the HBV genome, including the enhancer region, the core promoter and the polymerase. BIM5078 can downregulate the core and polymerase, and it has been discovered that it can effectively suppress or eliminate HBV proliferation. Also, the HNF4α binding sites are well-conserved and no mutations of these sites have yet been discovered in the various HBV strains. Thus, targeting HNF4α can circumvent the resistance seen with traditional therapies. […] The ability of the HNF4α antagonist BIM5078 to reduce viral production in Huh7 cells transfected with the wild-type HBV construct (pWTD) was tested. […] The large decrease in the two glycosylation forms of the surface antigen was visualized as doublet bands (FIG. 9).

HBV = experiment: as above; assay type: cell-based, Hepatitis B virus; settings: GP33 and GP36 doublet bands
Excerpt: as §1, §2

HNF4α = biological target: T1, HNF4α (Homo sapiens, UniProt P41235); experiment: HNF4α subcellular localization; assay type: cell-based
T1 sequence (P41235 1-474): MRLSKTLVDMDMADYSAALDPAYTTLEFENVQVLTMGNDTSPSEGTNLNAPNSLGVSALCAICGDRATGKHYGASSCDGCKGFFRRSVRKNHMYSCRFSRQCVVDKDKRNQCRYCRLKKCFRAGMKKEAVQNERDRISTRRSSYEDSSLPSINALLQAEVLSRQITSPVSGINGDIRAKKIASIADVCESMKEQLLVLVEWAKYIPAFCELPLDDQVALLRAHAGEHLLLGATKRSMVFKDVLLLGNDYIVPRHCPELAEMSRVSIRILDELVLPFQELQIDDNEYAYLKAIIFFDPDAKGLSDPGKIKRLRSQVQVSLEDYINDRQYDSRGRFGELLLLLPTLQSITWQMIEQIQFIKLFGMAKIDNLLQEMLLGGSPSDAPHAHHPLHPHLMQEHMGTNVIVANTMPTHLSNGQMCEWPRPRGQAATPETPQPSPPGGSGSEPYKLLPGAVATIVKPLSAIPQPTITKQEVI
Excerpt: Many ligands for nuclear receptor subfamilies induce the translocation of their receptors between the cytoplasm and the nucleus.

human PPARγ = biological target: T2, human PPARγ (Homo sapiens, UniProt P37231); experiment: PPAR response element (PPRE)-luciferase reporter assay in HeLa cells; assay type: cell-based; settings: PPRE reporter plasmid with or without human PPARγ expression vector
T2 construct: expressed in transfected cells; host or cells: HeLa cells
T2 sequence (P37231 1-505): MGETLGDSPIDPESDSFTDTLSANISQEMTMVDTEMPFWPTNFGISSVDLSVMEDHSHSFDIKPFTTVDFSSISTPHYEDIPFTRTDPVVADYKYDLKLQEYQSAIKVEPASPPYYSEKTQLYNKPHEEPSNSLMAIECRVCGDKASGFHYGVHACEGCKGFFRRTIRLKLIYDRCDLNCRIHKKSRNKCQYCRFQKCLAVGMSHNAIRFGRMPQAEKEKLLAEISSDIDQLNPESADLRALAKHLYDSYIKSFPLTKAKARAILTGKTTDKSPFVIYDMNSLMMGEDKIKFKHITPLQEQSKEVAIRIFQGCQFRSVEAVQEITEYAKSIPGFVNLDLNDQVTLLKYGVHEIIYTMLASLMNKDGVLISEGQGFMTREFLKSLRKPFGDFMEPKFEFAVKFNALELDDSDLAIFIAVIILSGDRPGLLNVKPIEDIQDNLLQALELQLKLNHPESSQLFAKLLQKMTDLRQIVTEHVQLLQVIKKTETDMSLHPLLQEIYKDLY
Experimental: The core structure of BIM5078, benzimidazole, is related to known PPARγ compounds that functions as agonists or antagonists. BIM5078 was used in a PPAR response element (PPRE)-luciferase reporter assay. HeLa cells were co-transfected with a PPAR response element (PPRE) reporter plasmid and a human PPARγ expression vector. […] Known PPARγ agonists were used as positive controls. The same PPARγ agonist compounds were tested on T6PNE ins-eGFP for their ability to repress the insulin promoter. Known PPARγ agonists are unable to suppress insulin gene transcription. Similarly, other PPAR agonists of the alpha and delta class were also negative in the assay. However, because HNF4α also binds to PPREs, BIM5078's ability to bind HNF4α was further investigated.

HNF1α transcription = experiment: HNF1α transcription; assay type: cell-based
Experimental: HNF1α is a downstream target of HNF4α and has a known binding site on the human insulin gene promoter. […] It is unclear whether HNF4α is modulating the insulin promoter directly or indirectly through a downstream target. Overexpression of HNF1α or HNF4α would overcome the repressive effects of BIM5078. The repressive effect of BIM5078 was lost when it was added to T6PNE cells with high levels of induced E47 (FIG. 8). High E47 levels are thought to resemble the normal state of a β-cell while low levels of E47 to simulate the stress condition.

[3] = hoFH patients, ezetimibe 10 mg/day added to statin 80 mg/day; cited from earlier work
human insulin promoter = experiment: High-throughput screen / confirmatory assay, insulin promoter-GFP (ins-GFP) transgene in T6PNE cells; assay type: cell-based; settings: T6PNE ins-eGFP cells
Excerpt: Primary β-cells are in short supply and have a strong tendency to undergo apoptosis when manipulated in culture. Therefore, a β-cell model was used for the studies regarding β-cell growth and differentiation. T6PNE cells were derived from human fetal islets and were engineered to express the transcription factors PDX-1, NeuroD1, and E47, which are all present in the human β-cell. It was observed that induction of E47 upregulates the expression of many genes associated with β-cell function, including insulin. Consistent with what occurs in primary β-cells, it also was observed that E47 induction caused growth arrest in the cell line. Therefore, E47 was […] in T6PNE cells. […] Therefore, expression in the transfunctioned cell can be used as a baseline so both up and down regulators of the insulin promoter can be monitored in the screening assays. […] Insulin expression was monitored and visualized by the ins-GFP transgene. Hits were determined and dependent on the ability to differentiate between a baseline condition and the corresponding positive or negative control. […]
The HTS was performed in a 384-well format where primed T6PNE cells express the ins-GFP transgene and the test compound was added 24 hours later. […] The Images were then analyzed using algorithms (Jeff Price at the Screening Center at the Burnham Institute). […]

4-hydroxytamoxifen [reference compound]
endogenous insulin message with E47 induction ([1]; T6PNE cells with inducible E47): upregulated in a dose-dependent manner

Cc1nc2ccccc2n1S(=O)(=O)c1cc([N+](=O)[O-])ccc1Cl [BIM5078, 1-(2-Chloro-5-nitrophenylsulfonyl)-2-methyl-1H-benzo[d]imidazole]
repressive effect on insulin expression at high E47 ([1]; T6PNE cells with high levels of induced E47 (high 4-hydroxytamoxifen)): lost
actin levels [2]: no dependence
HBV surface antigen (HBsAg) levels (HBV): decreased their levels of surface antigen; also recorded: decreased the HBsAg protein expression
HNF4α localization upon addition of compound (HNF4α): localized entirely in the nucleus
activation of PPRE reporter (human PPARγ): activated the PPRE
HNF1α transcription (HNF1α transcription): decrease the HNF1α transcription

O=C1[C@H](CC[C@H](O)c2ccc(F)cc2)[C@@H](c2ccc(O)cc2)N1c1ccc(F)cc1 [ezetimibe]
total reduction of LDL-C levels [3]: 27%

CCCCCCCCCCCCCCCC(=O)O [palmitic acid]
insulin promoter activity / insulin gene transcription, effect in words (human insulin promoter): suppresses the insulin promoter activity in a dose-dependent fashion
